# Assay results from patent US5726156A, “Cytokine regulatory agents and methods of use in pathologies and conditions associated with altered cytokine levels” (Trega Biosciences, Inc., priority 1995, dated 1998).
# Tests used:
# Zucker NIDDM diabetes = assay: Heritable diabetes, Zucker NIDDM rats; format: in vivo; conditions: 25 μg/kg every 8 hr for approximately three months
# Procedure: Male Zucker rats are a well established rat model for heritable non-insulin dependent diabetes mellitus (NIDDM), as described, for example, by Ward et al., Ann. Clin. Lab. Sci., 24:266-277, (1994), which is incorporated herein by reference. Eighteen male Zucker rats were used to study the effects of EX-2 on NIDDM, a chronic disease. The rats were placed into two groups and received either saline or 25 μg/kg EX-2 every 8 hr for approximately three months. Blood samples were collected by tail clip and urine samples were collected by placing animals in metabolic cages fro 24 hr. Plasma insulin was assayed using an RIA kit (Amersham Life Sciences, Arlington Heights, Ill.). Urine protein was assayed for using a commercial protein assay kit (Coomassie Plus, Pierce, Rockford, Ill.). Body weighed measurements were made with a Mettler Toledo top loader balance.
# LPS-induced lethality = LPS-induced lethality (IP dosing); format: in vivo, mice; conditions: 11 × 300 μg/mouse IP (3.3 mg), every 4 hr; 0.6 mg LPS
# Procedure: These experiments were performed based on information reported by Rivier etal., Endocrinology 125:2800-2805 (1989), which is incorporated herein by reference. Adult female Balb/c mice were provided food and water ad libitum. Mice were injected IP every four hr for 40 hr with 30 to 300 μg EX-2, EX-3 or EX-4 in 0.2 ml saline (treated group) or with 0.2 ml saline, alone (control group) (10 mice per group). Immediately following the first injection, 0.6 mg LPS endotoxin in 0.2 ml saline was administered to each mouse. Following LPS injection, EX-2 or saline was administered to the treated mice or the control mice, respectively, every 4 hr for 36 hr.
substance,measurement,setting,value
Ac-Nle-Gln-His-(D)Phe-Arg-(D)Trp-Gly-NH2 [EX-2],"% Reduction, Zucker NIDDM Diabetes, Body Weight (grams)",Zucker NIDDM diabetes,32%
same,"% Reduction, Zucker NIDDM Diabetes, Insulin (ng/ml)",Zucker NIDDM diabetes,39%
same,"% Reduction, Zucker NIDDM Diabetes, Urine Protein (mg/24 hr)",Zucker NIDDM diabetes,87%
same,decrease in body weight,Zucker NIDDM diabetes,approximately 100 gram
same,Inhibition of LPS-induced Lethality (increase in survival vs control),LPS-induced lethality,83%
